The results in this text go back to patent US6620828B2, “Thiazole compounds and pharmaceutical compositions for inhibiting protein kinases and methods for their use” (Agouron Pharmaceuticals, Inc., priority 1999, dated 2003).

SMILES strings stand for the structures.

The test system of one assay is human umbilical vein endothelial cells (HUVEC). The assay can be described thus: HUVEC proliferation assay. The format is cell-based. Conditions: Homo sapiens, HUVEC, 10 nM; crude combinatorial urea library; read-out: Inhibition of HUVEC Proliferation % inhibition @ 10 nM. The procedure, abridged: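 Readout was MTT dye reduction (A595) after 72 h of stimulation with VEGF at 6 ng/ml final. Compound, in 0.1% DMSO final, was added 1 h before VEGF to HUVEC starved 24 h in 1% FBS. % inhibition was scaled between VEGF-alone and unstimulated wells; IC50 was fitted from triplicate dose curves.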
As for `COc1cccc(C(=O)Nc2cccc(-c3csc(-c4sc(NC(=O)NCC(C)O)nc4N)n3)c2)c1` (centres unmarked), the inhibition at 0.01 µM was 7%.
The same measure, in the same setting: with `COc1cccc(C(=O)Nc2cccc(-c3csc(-c4sc(NC(=O)NCC(O)CO)nc4N)n3)c2)c1` (centres unmarked) the figure was -3%; with `COc1cccc(C(=O)Nc2cccc(-c3csc(-c4sc(NC(=O)NC(C)CO)nc4N)n3)c2)c1` (centres unmarked), -3%.
On the same count and under the same terms, the same measure for `COc1cccc(C(=O)Nc2cccc(-c3csc(-c4sc(NC(=O)NCCCN(C)C)nc4N)n3)c2)c1`: -8%; for `COc1cccc(C(=O)Nc2cccc(-c3csc(-c4sc(NC(=O)NCCN(C)C)nc4N)n3)c2)c1`: -11%.
On the same count and under the same terms, with `COc1cccc(C(=O)Nc2cccc(-c3csc(-c4sc(NC(=O)NCC(C)(C)N)nc4N)n3)c2)c1` the figure was 14%.

Still in this assay, the particulars now being: Homo sapiens, HUVEC, 50 nM; crude combinatorial urea library; read-out: Inhibition of HUVEC Proliferation % inhibition @ 50 nM.
Consider `COc1cccc(C(=O)Nc2cccc(-c3csc(-c4sc(NC(=O)NCC(C)O)nc4N)n3)c2)c1` (centres unmarked), for which the inhibition at 0.05 µM came out at 126%.
The same measure, in the same setting: with `COc1cccc(C(=O)Nc2cccc(-c3csc(-c4sc(NC(=O)NCC(O)CO)nc4N)n3)c2)c1` (centres unmarked) the figure was 42%.
On the same count and under the same terms, with `COc1cccc(C(=O)Nc2cccc(-c3csc(-c4sc(NC(=O)NC(C)CO)nc4N)n3)c2)c1` (centres unmarked) the figure was 42%.
Still for that read-out and setting: the same measure for `COc1cccc(C(=O)Nc2cccc(-c3csc(-c4sc(NC(=O)NCCCN(C)C)nc4N)n3)c2)c1`: 15%; for `COc1cccc(C(=O)Nc2cccc(-c3csc(-c4sc(NC(=O)NCCN(C)C)nc4N)n3)c2)c1`: 46%; for `COc1cccc(C(=O)Nc2cccc(-c3csc(-c4sc(NC(=O)NCC(C)(C)N)nc4N)n3)c2)c1`: 3%.

The assay is the same for the next values; noted with them: Homo sapiens, HUVEC, Inhibition of HUVEC Proliferation; 50 nM; crude combinatorial urea library; read-out: % inhibition @ 50 nM.
With `CCN(CC)CCNC(=O)Nc1nc(N)c(-c2nc(-c3cc(NC(=O)c4cccc(OC)c4)c(F)cc3F)cs2)s1`, the inhibition at 0.05 µM worked out at 40%.
Still for that read-out and setting: the same measure for `COc1cccc(C(=O)Nc2cc(-c3csc(-c4sc(NC(=O)NC5CC(C)(C)NC(C)(C)C5)nc4N)n3)c(F)cc2F)c1`: 89%.
Still for that read-out and setting: with `COc1cccc(C(=O)Nc2cc(-c3csc(-c4sc(NC(=O)NCCc5ccc(N)cc5)nc4N)n3)c(F)cc2F)c1` the figure was 65%; with `COc1cccc(C(=O)Nc2cc(-c3csc(-c4sc(NC(=O)NCCCN5CCOCC5)nc4N)n3)c(F)cc2F)c1`, 81%; with `COc1cccc(C(=O)Nc2cc(-c3csc(-c4sc(NC(=O)NCCC(C)C)nc4N)n3)c(F)cc2F)c1`, 55%.
Same read-out and setting: with `COc1cccc(C(=O)Nc2cc(-c3csc(-c4sc(NC(=O)NCC5CCCO5)nc4N)n3)c(F)cc2F)c1` (centres unmarked) the figure was 92%; with `COc1cccc(C(=O)Nc2cc(-c3csc(-c4sc(NC(=O)NCCC5CCCN5C)nc4N)n3)c(F)cc2F)c1` (centres unmarked), 27%.
Take `COc1cccc(C(=O)Nc2cc(-c3csc(-c4sc(NC(=O)NCCN5CCCCC5)nc4N)n3)c(F)cc2F)c1`: the inhibition at 0.05 µM stood at 74%.
On the same count and under the same terms, with `COc1cccc(C(=O)Nc2cc(-c3csc(-c4sc(NC(=O)NCCCN5CCCCC5C)nc4N)n3)c(F)cc2F)c1` (centres unmarked) the figure was 86%; with `COc1cccc(C(=O)Nc2cc(-c3csc(-c4sc(NC(=O)NC5CCN(Cc6ccccc6)CC5)nc4N)n3)c(F)cc2F)c1`, 66%; with `COc1cccc(C(=O)Nc2cc(-c3csc(-c4sc(NC(=O)NCC(C)(C)CN(C)C)nc4N)n3)c(F)cc2F)c1`, 75%.
Same read-out and setting: the same measure for `COc1cccc(C(=O)Nc2cc(-c3csc(-c4sc(NC(=O)N[C@H]5CC[C@H](O)CC5)nc4N)n3)c(F)cc2F)c1`: 81%; for `COc1cccc(C(=O)Nc2cc(-c3csc(-c4sc(NC(=O)NCCC(=O)O)nc4N)n3)c(F)cc2F)c1`: 66%.
Still for that read-out and setting: with `COCCNC(=O)Nc1nc(N)c(-c2nc(-c3cc(NC(=O)c4cccc(OC)c4)c(F)cc3F)cs2)s1` the figure was 21%.
On to `COc1cccc(C(=O)Nc2cc(-c3csc(-c4sc(NC(=O)NCC(F)(F)F)nc4N)n3)c(F)cc2F)c1`, for which the inhibition at 0.05 µM is 2%.
Same read-out and setting: with `COc1cccc(C(=O)Nc2cc(-c3csc(-c4sc(NC(=O)NCCCn5ccnc5)nc4N)n3)c(F)cc2F)c1` the figure was 6%.
Still for that read-out and setting: with `COc1cccc(C(=O)Nc2cc(-c3csc(-c4sc(NC(=O)NCCc5ccc(S(N)(=O)=O)cc5)nc4N)n3)c(F)cc2F)c1` the figure was 25%; with `CCN(CC)CCCNC(=O)Nc1nc(N)c(-c2nc(-c3cc(NC(=O)c4cccc(OC)c4)c(F)cc3F)cs2)s1`, 89%; with `COc1cccc(C(=O)Nc2cc(-c3csc(-c4sc(NC(=O)NCC(N)=O)nc4N)n3)c(F)cc2F)c1`, 48%.
The same measure, in the same setting: with `COc1cccc(C(=O)Nc2cc(-c3csc(-c4sc(NC(=O)NCC(C)C)nc4N)n3)c(F)cc2F)c1` the figure was 38%; with `COc1cccc(C(=O)Nc2cc(-c3csc(-c4sc(NC(=O)NCCc5cccnc5)nc4N)n3)c(F)cc2F)c1`, 100%.
As to `COc1cccc(C(=O)Nc2cc(-c3csc(-c4sc(NC(=O)NCCO)nc4N)n3)c(F)cc2F)c1`, the inhibition at 0.05 µM was found to be 110%.
`COc1cccc(C(=O)Nc2cc(-c3csc(-c4sc(NC(=O)N[C@@H](CC(N)=O)C(N)=O)nc4N)n3)c(F)cc2F)c1`: the inhibition at 0.05 µM turned out to be 32%.
In the case of `CNC(=O)CNC(=O)Nc1nc(N)c(-c2nc(-c3cc(NC(=O)c4cccc(OC)c4)c(F)cc3F)cs2)s1`, the inhibition at 0.05 µM amounted to 73%.
The same measure, in the same setting: with `COc1cccc(C(=O)Nc2cc(-c3csc(-c4sc(NC(=O)NCCc5cncn5C)nc4N)n3)c(F)cc2F)c1` the figure was 58%; with `CCN1CCCC1CNC(=O)Nc1nc(N)c(-c2nc(-c3cc(NC(=O)c4cccc(OC)c4)c(F)cc3F)cs2)s1` (centres unmarked), 85%.
On the same count and under the same terms, the same measure for `COc1cccc(C(=O)Nc2cc(-c3csc(-c4sc(NC(=O)NC(C)CN(C)C)nc4N)n3)c(F)cc2F)c1` (centres unmarked): 64%; for `COc1cccc(C(=O)Nc2cc(-c3csc(-c4sc(NC(=O)NCCCN5CCCC5)nc4N)n3)c(F)cc2F)c1`: 92%; for `COc1cccc(C(=O)Nc2cc(-c3csc(-c4sc(NC(=O)NCCN(C(C)C)C(C)C)nc4N)n3)c(F)cc2F)c1`: 82%.
Still for that read-out and setting: with `COc1cccc(C(=O)Nc2cc(-c3csc(-c4sc(NC(=O)NCCCN5CCN(C)CC5)nc4N)n3)c(F)cc2F)c1` the figure was 95%.
`COc1cccc(C(=O)Nc2cc(-c3csc(-c4sc(NC(=O)NCCN5CCNC5=O)nc4N)n3)c(F)cc2F)c1`: the inhibition at 0.05 µM worked out at 78%.
Same read-out and setting: with `COc1cccc(C(=O)Nc2cc(-c3csc(-c4sc(NC(=O)NCCC(N)=O)nc4N)n3)c(F)cc2F)c1` the figure was 48%; with `CCN(CC)CCCC(C)NC(=O)Nc1nc(N)c(-c2nc(-c3cc(NC(=O)c4cccc(OC)c4)c(F)cc3F)cs2)s1` (centres unmarked), 84%.
Take `COc1cccc(C(=O)Nc2cc(-c3csc(-c4sc(NC(=O)NCCCCN(C)C)nc4N)n3)c(F)cc2F)c1`: the inhibition at 0.05 µM came to 30%.
Still for that read-out and setting: with `COc1cccc(C(=O)Nc2cc(-c3csc(-c4sc(NC(=O)NCCCCCCN(C)C)nc4N)n3)c(F)cc2F)c1` the figure was 83%; with `COc1cccc(C(=O)Nc2cc(-c3csc(-c4sc(NC(=O)NCC(C)N(C)C)nc4N)n3)c(F)cc2F)c1` (centres unmarked), 22%; with `COc1cccc(C(=O)Nc2cc(-c3csc(-c4sc(NC(=O)NCCCN5CCCCCC5)nc4N)n3)c(F)cc2F)c1`, 86%.
As to `COc1cccc(C(=O)Nc2cc(-c3csc(-c4sc(NC(=O)NCCCN5CCCCC5)nc4N)n3)c(F)cc2F)c1`, the inhibition at 0.05 µM was found to be 89%.
On the same count and under the same terms, with `COc1cccc(C(=O)Nc2cc(-c3csc(-c4sc(NC(=O)NC5CCS(=O)(=O)C5)nc4N)n3)c(F)cc2F)c1` (centres unmarked) the figure was 100%; with `COc1cccc(C(=O)Nc2cc(-c3csc(-c4sc(NC(=O)NCCC(=O)NCC(=O)O)nc4N)n3)c(F)cc2F)c1`, 57%; with `COc1cccc(C(=O)Nc2cc(-c3csc(-c4sc(NC(=O)NCC#N)nc4N)n3)c(F)cc2F)c1`, 71%.
The same measure, in the same setting: the same measure for `COc1cccc(C(=O)Nc2cc(-c3csc(-c4sc(NC(=O)NCC(=O)NO)nc4N)n3)c(F)cc2F)c1`: 19%.
Same read-out and setting: with `COc1cccc(C(=O)Nc2cc(-c3csc(-c4sc(NC(=O)NCC(=O)O)nc4N)n3)c(F)cc2F)c1` the figure was 23%; with `COc1cccc(C(=O)Nc2cc(-c3csc(-c4sc(NC(=O)NCCS(=O)(=O)O)nc4N)n3)c(F)cc2F)c1`, 27%; with `CCC(O)CNC(=O)Nc1nc(N)c(-c2nc(-c3cc(NC(=O)c4cccc(OC)c4)c(F)cc3F)cs2)s1` (centres unmarked), 104%.
For the molecule `COc1cccc(C(=O)Nc2cc(-c3csc(-c4sc(NC(=O)NCC(C)(C)CO)nc4N)n3)c(F)cc2F)c1`, the inhibition at 0.05 µM is 120%.
As to `CCN1CC(NC(=O)Nc2nc(N)c(-c3nc(-c4cc(NC(=O)c5cccc(OC)c5)c(F)cc4F)cs3)s2)CN1CC`, the inhibition at 0.05 µM came to 82%.
Still for that read-out and setting: the same measure for `CCN(CCNC(=O)Nc1nc(N)c(-c2nc(-c3cc(NC(=O)c4cccc(OC)c4)c(F)cc3F)cs2)s1)c1cccc(C)c1`: 18%; for `COc1cccc(C(=O)Nc2cc(-c3csc(-c4sc(NC(=O)NCC(=N)N)nc4N)n3)c(F)cc2F)c1`: 17%.
Turning to `COc1cccc(C(=O)Nc2cc(-c3csc(-c4sc(NC(=O)NCC(C)(C)C)nc4N)n3)c(F)cc2F)c1`, the inhibition at 0.05 µM is 43%.
Same read-out and setting: the same measure for `COc1cccc(C(=O)Nc2cc(-c3csc(-c4sc(NC(=O)NCC5(O)CCCCC5)nc4N)n3)c(F)cc2F)c1`: 72%; for `COc1cccc(C(=O)Nc2cc(-c3csc(-c4sc(NC(=O)NCCc5c[nH]cn5)nc4N)n3)c(F)cc2F)c1`: 55%; for `COc1cccc(C(=O)Nc2cc(-c3csc(-c4sc(NC(=O)NCS(=O)(=O)O)nc4N)n3)c(F)cc2F)c1`: 0%.
On the same count and under the same terms, the same measure for `COc1cccc(C(=O)Nc2cc(-c3csc(-c4sc(NC(=O)NCCCN(C)c5ccccc5)nc4N)n3)c(F)cc2F)c1`: 45%.
As for `COc1cccc(C(=O)Nc2cc(-c3csc(-c4sc(NC(=O)NCc5ccc(S(N)(=O)=O)cc5)nc4N)n3)c(F)cc2F)c1`, the inhibition at 0.05 µM turned out to be 77%.
Still for that read-out and setting: with `COc1cccc(C(=O)Nc2cc(-c3csc(-c4sc(NC(=O)NCCCN(CCO)CCO)nc4N)n3)c(F)cc2F)c1` the figure was 51%.
